Like-named read-outs stand apart in the source and are kept apart here.
Biological target: T1, F508del (Homo sapiens, UniProt P13569, DEL508-508)
T1 construct: expressed in transfected cells
Assay: Protocol 2: FRET membrane potential optical assay (VIPR), identification of correction compounds
Assay type: cell-based
In short: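 NIH3T3 mouse fibroblasts stably expressing F508del were treated with test compound for 16 hrs at 37° C. in serum-free medium; 27° C. incubation served as positive control. F508del was activated with 10 μM forskolin plus 20 μM genistein in Cl^−-free medium, and Cl^− efflux-driven depolarization was read by DiSBAC2(3)/CC2-DMPE FRET.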

[1] = F508del CFTR modulator activity, compounds of Table 1, read-out: EC30
[2] = Table 3, compounds of Table 1 as modulators of CFTR activity, protocol not stated

T1 sequence (P13569 with tags, fused parts or gaps DEL508-508): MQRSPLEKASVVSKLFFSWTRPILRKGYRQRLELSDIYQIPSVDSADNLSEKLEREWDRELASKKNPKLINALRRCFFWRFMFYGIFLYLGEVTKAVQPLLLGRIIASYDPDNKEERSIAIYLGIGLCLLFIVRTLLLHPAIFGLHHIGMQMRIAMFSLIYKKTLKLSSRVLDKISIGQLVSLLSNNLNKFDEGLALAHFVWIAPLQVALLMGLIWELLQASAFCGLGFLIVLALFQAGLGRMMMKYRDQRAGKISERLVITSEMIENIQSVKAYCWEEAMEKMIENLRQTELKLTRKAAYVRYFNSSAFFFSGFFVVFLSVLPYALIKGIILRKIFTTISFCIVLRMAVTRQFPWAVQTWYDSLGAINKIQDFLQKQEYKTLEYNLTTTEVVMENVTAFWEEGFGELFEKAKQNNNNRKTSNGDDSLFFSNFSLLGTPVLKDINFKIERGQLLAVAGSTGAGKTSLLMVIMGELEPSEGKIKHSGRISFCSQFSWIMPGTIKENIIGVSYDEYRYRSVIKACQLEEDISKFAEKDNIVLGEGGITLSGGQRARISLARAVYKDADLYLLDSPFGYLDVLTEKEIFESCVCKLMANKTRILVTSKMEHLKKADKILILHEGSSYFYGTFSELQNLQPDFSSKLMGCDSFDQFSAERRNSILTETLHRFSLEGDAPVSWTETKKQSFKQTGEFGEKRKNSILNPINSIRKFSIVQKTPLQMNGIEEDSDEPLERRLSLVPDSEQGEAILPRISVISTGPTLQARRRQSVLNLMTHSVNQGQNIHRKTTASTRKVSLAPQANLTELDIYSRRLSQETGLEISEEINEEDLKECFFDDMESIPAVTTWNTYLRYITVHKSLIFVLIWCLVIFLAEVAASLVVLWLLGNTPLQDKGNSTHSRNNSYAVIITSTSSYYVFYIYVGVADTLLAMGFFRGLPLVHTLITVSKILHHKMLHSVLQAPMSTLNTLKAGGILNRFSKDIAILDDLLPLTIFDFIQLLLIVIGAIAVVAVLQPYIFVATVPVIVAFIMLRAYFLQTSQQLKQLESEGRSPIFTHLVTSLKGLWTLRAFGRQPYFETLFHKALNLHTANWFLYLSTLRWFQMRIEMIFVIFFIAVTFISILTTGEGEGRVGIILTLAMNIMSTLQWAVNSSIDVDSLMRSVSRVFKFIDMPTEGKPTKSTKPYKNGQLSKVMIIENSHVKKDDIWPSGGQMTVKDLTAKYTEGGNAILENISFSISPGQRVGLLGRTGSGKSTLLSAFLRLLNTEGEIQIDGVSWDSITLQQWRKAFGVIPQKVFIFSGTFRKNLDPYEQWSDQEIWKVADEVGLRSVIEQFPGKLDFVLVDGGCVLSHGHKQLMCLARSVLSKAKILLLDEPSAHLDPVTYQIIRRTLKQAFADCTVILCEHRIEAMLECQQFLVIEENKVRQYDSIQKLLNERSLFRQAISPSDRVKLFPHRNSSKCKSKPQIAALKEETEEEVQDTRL

| SMILES | EC30 [1] [nM] | EC30 [2] |
| --- | --- | --- |
| COc1ncc(-c2ccc(C(=O)NS(=O)(=O)c3cccc(N)n3)c(N3C[C@@H](C)CC3(C)C)n2)cc1C [Compound 2086, N-[(6-amino-2-pyridyl)sulfonyl]-6-(6-methoxy-5-methyl-3-pyridyl)-2-[(4S)-2,2,4-trimethylpyrrolidin-1-yl]pyridine-3-carboxamide] | < 3000 | – |
| Cc1cc(C)c(Cn2c(C(=O)NS(=O)(=O)c3ccccc3O)cc3ccccc32)c(C)c1 [Compound 112, N-(2-hydroxyphenyl)sulfonyl-1-[(2,4,6-trimethylphenyl)methyl]indole-2-carboxamide] | – | +++ (“+++” means <3 uM) |
| Cc1cccc(C)c1Cn1nc(-c2ccc(OC(F)(F)F)cc2)cc1C(=O)NS(=O)(=O)c1ccccc1 [Compound 159, N-(benzenesulfonyl)-2-[(2,6-dimethylphenyl)methyl]-5-[4-(trifluoromethoxy)phenyl]pyrazole-3-carboxamide] | – | +++ (“+++” means <3 uM) |
| CC(C)Oc1ccc(-c2ccc(C(=O)NS(=O)(=O)c3cccc(N)n3)c(N3[C@@H](C)CC[C@@H]3C)n2)cn1 [Compound 687, N-[(6-amino-2-pyridyl)sulfonyl]-2-[(2S,5S)-2,5-dimethylpyrrolidin-1-yl]-6-(6-isopropoxy-3-pyridyl)pyridine-3-carboxamide] | – | ++ (“++” means between 3 uM and 10 uM) |
| Cc1cc(C)c(Oc2nc(C(C)(C)C)ccc2C(=O)NS(=O)(=O)c2cn[nH]c2)c(C)c1 [Compound 401, 6-tert-butyl-N-(1H-pyrazol-4-ylsulfonyl)-2-(2,4,6-trimethylphenoxy)pyridine-3-carboxamide] | – | +++ (“+++” means <3 uM) |
| CC(C)COc1cc(F)cc(-c2ccc(C(=O)NS(=O)(=O)c3cccc(N)n3)c(N3CC(F)(F)C3)n2)c1 [Compound 2155, N-[(6-amino-2-pyridyl)sulfonyl]-2-(3,3-difluoroazetidin-1-yl)-6-(3-fluoro-5-isobutoxy-phenyl)pyridine-3-carboxamide] | 3000 to 10000 | – |
| CC(C)Oc1ccc(-c2ccc(C(=O)NS(=O)(=O)c3cccc(N)n3)c(N3CCCCC3)n2)cn1 [Compound 567, N-[(6-amino-2-pyridyl)sulfonyl]-6-(6-isopropoxy-3-pyridyl)-2-(1-piperidyl)pyridine-3-carboxamide] | – | ++ (“++” means between 3 uM and 10 uM) |
| Cc1cc(C)c(Cn2nc(C3(C)CC3)cc2C(=O)NS(=O)(=O)c2cccc(N)c2)c(C)c1 [Compound 158, N-(3-aminophenyl)sulfonyl-5-(1-methylcyclopropyl)-2-[(2,4,6-trimethylphenyl)methyl]pyrazole-3-carboxamide] | – | +++ (“+++” means <3 uM) |
| Cc1ccc(-c2nc3c(cc2C(=O)NS(=O)(=O)c2cccc(N)n2)CCCC3(C)C)cc1 [Compound 444, N-[(6-amino-2-pyridyl)sulfonyl]-8,8-dimethyl-2-(p-tolyl)-6,7-dihydro-5H-quinoline-3-carboxamide] | – | ++ (“++” means between 3 uM and 10 uM) |
| C[C@@H]1CN(c2nc(-c3cccc(CO)c3)ccc2C(=O)NS(=O)(=O)c2ccc[nH]c2=O)C(C)(C)C1 [Compound 1997, 6-[3-(hydroxymethyl)phenyl]-N-[(2-oxo-1H-pyridin-3-yl)sulfonyl]-2-[(4S)-2,2,4-trimethylpyrrolidin-1-yl]pyridine-3-carboxamide] | 3000 to 10000 | – |
| CCOc1ccc(-c2cc(C(=O)NS(=O)(=O)c3ccccc3)n(Cc3c(C)cccc3C)n2)cc1 [Compound 29, N-(benzenesulfonyl)-2-[(2,6-dimethylphenyl)methyl]-5-(4-ethoxyphenyl)pyrazole-3-carboxamide] | – | +++ (“+++” means <3 uM) |
| Cc1ccc(-c2ccc(C(=O)NS(=O)(=O)c3nccnc3N)c(Oc3ccc(C)cc3C)n2)cc1 [Compound 607, N-(3-aminopyrazin-2-yl)sulfonyl-2-(2,4-dimethylphenoxy)-6-(p-tolyl)pyridine-3-carboxamide] | – | +++ (“+++” means <3 uM) |
| Cc1cc(C)c(CN2Cc3ccccc3C2C(=O)NS(=O)(=O)c2ccncc2)c(C)c1 (centres unmarked) [Compound 94, N-(4-pyridylsulfonyl)-2-[(2,4,6-trimethylphenyl)methyl]isoindoline-1-carboxamide] | – | +++ (“+++” means <3 uM) |
| CC(C)(C)c1ccc(C(=O)NS(=O)(=O)c2cccc(N)c2)c(-c2ccc(C(F)(F)F)cc2)n1 [Compound 129, N-(3-aminophenyl)sulfonyl-6-tert-butyl-2-[4-(trifluoromethyl)phenyl]pyridine-3-carboxamide] | – | ++ (“++” means between 3 uM and 10 uM) |
| C[C@@H]1CC[C@H](C)N1c1nc(-c2ccc(OCC3CC3)nc2)ccc1C(=O)NS(=O)(=O)c1cccc(N)n1 [Compound 789, N-[(6-amino-2-pyridyl)sulfonyl]-6-[6-(cyclopropylmethoxy)-3-pyridyl]-2-[(2S,5R)-2,5-dimethylpyrrolidin-1-yl]pyridine-3-carboxamide] | – | +++ (“+++” means <3 uM) |

More lines, now with the values ahead:

| EC30 [1] [nM] | EC30 [2] | SMILES |
| --- | --- | --- |
| < 3000 | – | COc1cccc(Oc2cccc(S(=O)(=O)NC(=O)c3cccnc3N3CC(C)CC3(C)C)n2)c1OC (centres unmarked) [Compound 2233, N—[[6-(2,3-dimethoxyphenoxy)-2-pyridyl]sulfonyl]-2-(2,2,4-trimethylpyrrolidin-1-yl)pyridine-3-carboxamide] |
| 3000 to 10000 | – | CC1CN(c2ncccc2C(=O)NS(=O)(=O)c2cccc(NCCCCNC(=O)OC(C)(C)C)n2)C(C)(C)C1 (centres unmarked) [Compound 2335, tert-butyl N—[4-[[6-[[2-(2,2,4-trimethylpyrrolidin-1-yl)pyridine-3-carbonyl]sulfamoyl]-2-pyridyl]amino]butyl]carbamate] |
| 3000 to 10000 | – | CCCOCCNc1cccc(S(=O)(=O)NC(=O)c2cccnc2N2CC(C)CC2(C)C)n1 (centres unmarked) [Compound 2602, N—[[6-(2-propoxyethylamino)-2-pyridyl]sulfonyl]-2-(2,2,4-trimethylpyrrolidin-1-yl)pyridine-3-carboxamide] |
| < 3000 | – | CC1CN(c2ncccc2C(=O)NS(=O)(=O)c2cccc(Nc3ccc(-c4cnco4)cc3)n2)C(C)(C)C1 (centres unmarked) [Compound 2546, N—[[6-(4-oxazol-5-ylanilino)-2-pyridyl]sulfonyl]-2-(2,2,4-trimethylpyrrolidin-1-yl)pyridine-3-carboxamide] |
| 3000 to 10000 | – | CC1CN(c2ncccc2C(=O)NS(=O)(=O)c2cccc(NCCN(C)C(=O)OC(C)(C)C)n2)C(C)(C)C1 (centres unmarked) [Compound 2400, tert-butyl N-methyl-N—[2-[[6-[[2-(2,2,4-trimethylpyrrolidin-1-yl)pyridine-3-carbonyl]sulfamoyl]-2-pyridyl]amino]ethyl]carbamate] |
| < 3000 | – | CC1CN(c2ncc(-c3ccc(C(C)(C)C)cc3)cc2C(=O)NS(=O)(=O)c2cccc(N)n2)C(C)(C)C1 (centres unmarked) [Compound 2463, N-[(6-amino-2-pyridyl)sulfonyl]-5-(4-tert-butylpenyl)-2-(2,2,4-trimethylpyrrolidin-1-yl)pyridine-3-carboxamide] |
| < 3000 | – | C[C@@H]1CN(c2nc(-c3cccc(Cl)c3)ccc2C(=O)NS(=O)(=O)c2cccnc2N)C(C)(C)C1 [Compound 2183, N-[(2-amino-3-pyridyl)sulfonyl]-6-(3-chlorophenyl)-2-[(4S)-2,2,4-trimethylpyrrolidin-1-yl]pyridine-3-carboxamide] |
| 3000 to 10000 | – | CCOc1cccc(-c2ccc(C(=O)NS(=O)(=O)N3CC[C@H](N)C3)c(N3C[C@@H](C)CC3(C)C)n2)c1 [Compound 2570, N-[(3S)-3-aminopyrrolidin-1-yl]sulfonyl-6-(3-ethoxyphenyl)-2-[(4S)-2,2,4-trimethylpyrrolidin-1-yl]pyridine-3-carboxamide] |
